The source of these data is patent publication US7875638B2, “Synthesis of epothilones, intermediates thereto, analogues and uses thereof” (Sloan-Kettering Institute for Cancer Research, priority 2002, dated 2011).

In brackets after ≈: the same amount, converted by molar mass. Several values for one entry are separate records, joined by “and”; a condition that tells them apart may be missing. Identical values can stand only once. Entries after “also recorded” stand apart in the source; their conditions may differ. Like-named read-outs stand apart in the source and are kept apart here.

In one data set the test system is CCRF-CEM. To be noted: for Potency compared with EpoB (51): sensitive and resistant cell lines.
The conditions of data set [1]: for Slower drug degradation in murine plasma as compared to dEpoB (1), factor: exposure to murine plasma.
Description: (§1) Stability of epothilones in mouse and in human liver S9 fraction. The stability study was carried out with a fully automated HPLC system which consisted of a Prospekt-2 (Spark Holland, Netherlands) sample preparation system and an Agilent 1100 HPLC system. Briefly, the Prospekt 2 picked up a C8 extraction cartridge and washed it with acetonitrile and water. The Agilent autosampler, set at 37° C., picked up 20 μl of the sample, loaded it onto the cartridge, washed it with water, then the Prospekt-2 diverted the mobile phase stream through the extraction cartridge onto the analytical column, Reliance Stable Bond C8 4×80 mm with guard column (MacMod, Chadds Ford, Pa.) and the eluent was monitored at 250 nm. […] Sample preparation involved the addition of equal volumes of plasma to PBS for a total volume of 300-400 μl, filtered, and the addition of 0.5-2 μl of the substrate (20 mM) to achieve about 30-50 mAU at 250 nm in the HPLC analysis. For pooled human liver microsome S9 fraction (Xeno Tech, Lenex, Kans.), 20 μl (400 μg) or S9 fraction was mixed with 280 μl of PBS then proceeded as above. The sampling period was controlled by the autosampler and peak area data were collected to compare the rate of disappearance of the parent compound.
(§2) Stability of epothilones in mouse and in human liver S9 fraction: The stability study was carried out with a fully automated HPLC system which consisted of a Prospekt-2 (Spark Holland, Netherlands) sample preparation system and an Agilent 1100 HPLC system. Briefly, the Prospekt 2 picked up a C8 extraction cartridge and washed it with acetonitrile and water. The Agilent autosampler, set at 37° C., picked up 20 μl of the sample, loaded it onto the cartridge, washed it with water, then the Prospekt-2 diverted the mobile phase stream through the extraction cartridge onto the analytical column, Reliance Stable Bond C8 4×80 mm with guard column (MacMod, Chadds Ford, Pa.) and the eluent was monitored at 250 nm. […] Sample preparation involves the addition of equal volumes of plasma to PBS for a total volume of 400 μl, filtered, and the addition of 0.5-2 μl of the substrate (20 mM) to achieve about 30-50 mAU at 250 nm in the HPLC analysis. For pooled human liver microsome S9 fraction (Xeno Tech, Lenex, Kans.), 20 μl (400 μg) or S9 fraction was mixed with 280 μl of PBS then proceeds as above. The sampling period was controlled by the autosampler and peak area data were collected to compare the rate of disappearance of the parent compound.
The conditions of data set [2]: preliminary metabolic degradation studies.
In the next data set the test system is CCRF-CEM/Taxol. It counts as cell-based, human. To be noted: for IC50: Homo sapiens, CCRF-CEM.
For data set [3], the system named is human xenografts in nude mice, such as MX-1. The arrangement: Relative therapuetic index at MTD: key to the marks not given beside the values.
The nature of data set [4]: in vitro. As to conditions: mouse, plasma.
Description: as §1, §2
The nature of data set [5]: in vitro. As to conditions: human, s9.
Description: as §1, §2
The nature of data set [6]: Octanol-water partition (POW) number by HPLC. It is filed as physicochemical. As to conditions: HPLC estimate, pH 7.4 buffer; read-out: Lipophilicity octanol/water partition (POW). The protocol: Determination of partition of octanol-water (POW) number. An HPLC method is used to estimate octanol-water partition. An Agilent 1100 HPLC system is used with an eclipse XDB C18 column 4.6×250 mm with a mobile phase of 60% acetonitrile/40% 25 mM potassium phosphate buffer at pH 7.4 with a flow rate of 0.8 ml per min. and the eluent is monitored at 250 nm. The standards used are benzyl alcohol, acetophenone, benzophenone, naphthalene, diphenyl ether and dibenzyl with known POW of […] respectively. Sodium dichromate is used to evaluate time zero which is 2.5 min and the retention times for the standards are 3.9, 5.4, 10.6, 14, 18.7 and 19.8 min, respectively. The k value is calculated by the formula of k=(trt−t0)/t0. Linear regression of log k vs. log POW gives a straight line with r^2=0.966. This graph is used to evaluate the POW value of the epothilone analogs.

Data set [7] concerns human T-cell lymphoblastic leukemia CCRF-CEM/Taxol xenograft. Description: CCRF-CEM/Taxol xenograft in nude mice. It counts as in vivo.
The subject of data set [8] is human mammary carcinoma MX-1 xenograft. As to conditions: 20 mg/kg.
Data set [9] concerns human colon carcinoma HCT-116 xenograft.
In data set [10] the test system is human mammary carcinoma MX-1 xenograft. Description: MX-1 xenograft in nude mice.
Data set [11] concerns human colon carcinoma HCT-116 xenograft. The experiment in a line: HCT-116 xenograft in nude mice.
Where [12] appears, read: read-out: CCRF-CEM (IC50 (μM)), XTT assay following 72 h inhibition, Table 1-1.
[13] abbreviates: 72 h, read-out: IC50, CCRF-CEM/Taxol.
Where [14] appears, read: read-out: IC50, CCRF-CEM, XTT assay following 72 h inhibition, Table 1-4.
The mark [15] stands for this setting: XTT assay following 72 h inhibition, Table 1-4, read-out: IC50, CCRF-CEM/Taxol.

Description for A549/taxol cells: Cytotoxicity Assays. In preparation for in vitro cytotoxicity assays, cells were cultured at an initial density 2-5×10^4 cells per milliliter. […] For both methods, the absorbance of each well was measured with a microplate reader (Power Wave XS, Bio-Tek, Winooski, Vt.).

For the compound `C/C(=C\c1csc(C)n1)[C@@H]1C/C=C(/C(F)(F)F)C/C=C/C[C@H](C)[C@H](O)[C@@H](C)C(=O)C(C)(C)[C@@H](O)CC(=O)O1` [Compound 19, 27-F3-[17]ddEpoB], the IC50 in the data set with CCRF-CEM (setting [12]) worked out at 0.068 µM. In addition, the “Degradation on exposure to nude mouse plasma” value in data set [1] (preliminary metabolic degradation studies) was “remained mostly intact”. Also, the “Degradation on exposure to human plasma” value in [2] is recorded as “remained mostly intact”.

As to “[17]ddEpoB [Compound 23, reference compound]”, in the data set with CCRF-CEM (setting [12]), the IC50 amounted to 0.04 µM.

For `C/C(=C\c1csc(C)n1)[C@@H]1C[C@@H]2O[C@]2(C)CCC[C@H](C)[C@H](O)[C@@H](C)C(=O)C(C)(C)[C@@H](O)CC(=O)O1` [Compound 51, Epothilone B, reference compound], the IC50 in the data set with CCRF-CEM/Taxol (setting [13]) came out at 0.0011 µM; in the data set on CCRF-CEM (read-out: Cytotoxic Efficacy IC50, CCRF-CEM leukemic cells, range of two experiments, seven concentration points), 0.00053 ± 0.0002 µM; with CCRF-CEM (setting [14]), 0.00062 µM. In addition, the “IC50 in vitro (FIG. 94)” value with CCRF-CEM is given as “sub-nanomolar”. For the same compound, the “Therapeutic dose regimen for Q2D 6 hr-iv infusion” value in data set [3] (Q2D 6 hr-iv infusion) fell in the range of 0.6 to 0.8 mg/kg. For the same compound, the “Relative therapuetic index at MTD” value in data set [3] (graded at maximal tolerated dose) was “+++”. Besides, the “Maximal b.w. % drop without death” value in [3] (nude mice) was 15%. Besides, the half-life was 0.95 h in the data set “in vitro [4]” and 15.8 h in the data set “in vitro [5]”.

Turning to `C/C(=C\c1csc(C)n1)[C@@H]1C[C@H]2O[C@@]2(C)CCC[C@H](C)[C@H](O)[C@@H](C)C(=O)C(C)(C)[C@@H](O)CC(=O)O1` [Compound 52], the IC50 in the data set on CCRF-CEM/Taxol (setting [13]) is 0.151 µM; with CCRF-CEM (setting [14]), 0.083 µM. The “Potency compared with EpoB (51)” value in the data set with CCRF-CEM is given as “much lower activity”.

On to `C/C(=C\c1csc(C)n1)[C@@H]1C/C=C(/C(F)(F)F)CCC[C@H](C)[C@H](O)[C@@H](C)C(=O)C(C)(C)[C@@H](O)CC(=O)O1` [Compound 2, 26-trifluoro-12,13-desoxyepothilone B], for which the IC50 with CCRF-CEM/Taxol (XTT assay following 72 h inhibition, Table 1-3, read-out: IC50, C/Taxol) is 0.018 µM; in the data set with CCRF-CEM (human), 0.0093 ± 0.0052 µM; in the data set on CCRF-CEM (read-out: IC50, CCRF-CEM(C), XTT assay following 72 h inhibition, Table 1-3), 0.0041 µM. Moreover, the chromatographic logP in data set [6] was 4.1. Further, the “Slower drug degradation in murine plasma as compared to dEpoB (1), factor” value in data set [1] is listed as “by a factor of seven”. In data set [3] (mouse, in vivo), the “Maximal b.w. % drop without death” value was 22%. Moreover, the “Therapeutic dose regimen for Q2D 6 hr-iv infusion” value in data set [3] (mouse, in vivo, iv) was 15 to 20 mg/kg. In addition, the figures for the half-life in “in vitro [4]” and in the data set “in vitro [5]” were 1.1 ± 0.117 h and 1.6 ± 0.4 h, respectively. In addition, the concentration in solution in the data set “Solubility in water” (water) (solubility) came to 8 µg/mL (≈ 14.7 µM).

`CC1=C/C[C@@H](/C(C)=C/c2csc(C)n2)OC(=O)C[C@H](O)C(C)(C)C(=O)[C@H](C)[C@@H](O)[C@@H](C)C\C=C\1` [Compound 6, epothilone 490, reference compound]: the IC50 in the data set on CCRF-CEM (read-out: CCRF-CEM (IC50 (μM))) was found to be 0.02 µM.

As to `C/C1=C/C[C@@H](/C(C)=C/c2csc(CO)n2)OC(=O)C[C@H](O)C(C)(C)C(=O)[C@H](C)[C@@H](O)[C@@H](C)/C=C/C1` [Compound 57, 9,10-dehydro-dEpoF], the IC50 in the data set on CCRF-CEM/Taxol (XTT assay following 72 h inhibition, Table 1-2, read-out: IC50 (μM), CCRF-CEM/Taxol) worked out at 0.00073 µM; in the data set with CCRF-CEM (read-out: IC50 (μM), CCRF-CEM, XTT assay following 72 h inhibition, Table 1-2) it was 0.00051 µM. In the data set on CCRF-CEM, the “IC50 in vitro (FIG. 94)” value is recorded as “sub-nanomolar”. In data set [1], the “Slower drug degradation in murine plasma as compared to dEpoB (1), factor” value was “ca. 7”. Further, the “Antitumor effect in human solid tumor xenograft models” value in data set [3] (mouse, in vivo) is “strongly suppressed tumor growth”. For the same compound, in “Solubility in water”, the “Water solubility relative to other epothilones” value was “greatly increased water solubility”.

Regarding `C/C(=C\c1csc(C)n1)[C@@H]1C[C@H]2O[C@@]2(C)C/C=C/[C@H](C)[C@H](O)[C@@H](C)C(=O)C(C)(C)[C@@H](O)CC(=O)O1` [Compound 50], the IC50 was 0.0802 µM in the data set with CCRF-CEM/Taxol (setting [15]) and 0.0134 µM in the data set with CCRF-CEM (setting [14]). For the same compound, the “Potency compared with EpoB (51)” value is on record as “much lower activity” in the data set on CCRF-CEM and “virtually devoid of activity” in the data set with CCRF-CEM (listed as unnatural α-oxirane).

On to `CC(=O)O[C@H]1C(=O)[C@@]2(C)[C@H]([C@H](OC(=O)c3ccccc3)[C@]3(O)C[C@H](OC(=O)[C@H](O)[C@@H](NC(=O)c4ccccc4)c4ccccc4)C(C)=C1C3(C)C)[C@]1(OC(C)=O)CO[C@@H]1C[C@@H]2O` [Paclitaxel, reference compound], for which the “Resistance of CCRF-CEM/Taxol subline” value in the data set with CCRF-CEM/Taxol is listed as 44 fold. In [7] (20 mg/kg), the “Final tumor suppression on D34” value stood at 75.6%. Also, the “Therapeutic effect on CCRF-CEM/Taxol xenograft” value in data set [7] (20 mg/kg, 6 hr-i.v. infusion, listed as Taxol) is “only partial suppression of tumor growth and failed to achieve tumor shrinkage; also recorded: tumor growth suppression but with little or no tumor shrinkage”. For the same compound, in [8], the “Tumor reappeared on day 10 after administration (mice)” value is given as 2/7. In addition, the “Tumor free after Q2Dx6 6 hr-iv. infusion (mice)” value in data set [8] (6 h) is reported as 7/7. In addition, the “Mice relapsed on day 10 after suspension of treatment” value in [8] (240 h) is 2/7. Moreover, the “Relapse, time after stopping treatment” value in [9] (20 mg/kg) was determined as 1.1 months. Also, in [9] (96 h), the Cell kill was determined as 2.56 log and the Tumor suppression is on record as 99.7%. The “Resistance of A549/taxol cells” value in the data set on A549/taxol cells worked out at 44 fold. Also, the “Effect of oral administration on MX-1 xenografts” value in data set [10] (oral) was “did not affect the tumor”. Also, in data set [11] (Fludelone 20 and 30 mg/kg, Taxol 20 mg/kg), the “Tumor relapse during follow-up to D200” value was “tumor relapse occurred on D71, 75, 81 and 81; also recorded: relapses on D71, 75, 81, and 81”. The “Tumor disappearance (mice)” value in [11] (Q2Dx4, 6 hr-i.v. infusion for 3 cycles, F3-deH-dEpoB 20 and 30 mg/kg, Taxol 20 mg/kg) is given as 4 out of 4.

`C/C(=C\c1csc(C)n1)[C@@H]1C[C@@H]2O[C@]2(C)C/C=C/[C@H](C)[C@H](O)[C@@H](C)C(=O)C(C)(C)[C@@H](O)CC(=O)O1` [Compound 49, (E)-9,10-dehydroepothilone B]: the IC50 in the data set on CCRF-CEM/Taxol (setting [15]) came to 0.00042 µM; with CCRF-CEM (setting [14]) it was 0.00023 µM. In addition, the “Therapeutic effect on CCRF-CEM/Taxol xenograft” value in [7] (0.6 mg/kg, Q3Dx5,x2) is recorded as “abolished tumor growth”. Besides, the “IC50 in vitro (FIG. 94)” value in the data set with CCRF-CEM was “sub-nanomolar”. In addition, the “Potency compared with EpoB (51)” value in the data set on CCRF-CEM is ~3 fold and 2-4 fold. The “Antitumor effect in human solid tumor xenograft models” value in data set [3] (mouse, in vivo) is on record as “strongly suppressed tumor growth”. The “Therapeutic effect on MX-1 xenograft” value is “shrinkage and disappearance of the tumor” in data set [10] (0.4-0.6 mg/kg, every three days 9-11 times, 6 hour iv infusion); “tumor growth suppression but no shrinkage of the tumor” in [10] (every other day for 8 doses). For the same compound, the “Body weight recovery, % of the control” value in data set [10] (every other day for 9 doses, second to eighth day) was 76% to 82%. The “Mice died of toxicity within three days after the sixth dosage” value in [11] (0.6 mg/kg, Q2Wx6, 6 hour infusion) is “four out of four”.

Take `C/C(=C\c1csc(CO)n1)C1C/C=C(/C(F)(F)F)C/C=C/[C@H](C)[C@H](O)[C@@H](C)C(=O)C(C)(C)[C@@H](O)CC(=O)O1` (stereo partly shown) [Compound 59, 26-trifluoro-9,10-dehydro-dEpoF]: the “Water solubility relative to other epothilones” value in the data set “Solubility in water” is on record as “greatly increased water solubility”.
